According to patent US20120328569A1, “INHIBITORS OF HEPATITIS C VIRUS NS5B POLYMERASE” (priority 2010, published 2012):

Each compound was assayed on HCV genotype 1b replicon (assay: HCV replicon assay, cell ELISA with antibody to replicon-encoded NS3/4A (genotype 1b replicon)). Settings: Hepatitis C virus, 96 h, read-out: 1b IC50(nM), HCV genotype 1b replicon; 96 hours incubation; NS3/4A cell ELISA.
Type: cell-based, hepatitis C virus
Method: The HCV NS5B inhibitory activity of the present compounds may be tested using assays known in the art. The HCV NS5B polymerase inhibitors described herein have activities in a genotype 1b replicon assay as described in the Examples. The assay is performed by incubating a replicon harboring cell-line in the presence of inhibitor for a set period of time and measuring the effect of the inhibitor on HCV replicon replication either directly by quantifying replicon RNA level, or indirectly by measuring enzymatic activity of a co-encoded reporter enzyme such as luciferase or β-lactamase. By performing a series of such measurements at different inhibitor concentrations, the effective inhibitory concentration of the inhibitor (EC50 or EC90) is determined. See Jan M. Vrolijk et al., A replicons-based bioassay for the measurement of interferons in patients with chronic hepatitis C, 110 J. VIROLOGICAL METHODS 201 (2003). Such assays may also be run in an automated format for high through-put screening. See Paul Zuck et al., A cell-based β-lactamase reporter gene assay for the identification of inhibitors of hepatitis C virus replication, 334 ANALYTICAL BIOCHEMISTRY 344 (2004).
Measurement of inhibition by compounds was performed using the HCV replicon system. Several different replicons encoding different HCV genotypes or mutations were used. In addition, potency measurements were made using different formats of the replicon assay, including different ways of measurements and different plating formats. See Jan M. Vrolijk et al., A replicons-based bioassay for the measurement of interferons in patients with chronic hepatitis C, 110 J. VIROLOGICAL METHODS 201 (2003); Steven S. Carroll et al., Inhibition of Hepatitis C Virus RNA Replication by 2′-Modified Nucleoside Analogs, 278(14) J. BIOLOGICAL CHEMISTRY 11979 (2003). However, the underlying principles are common to all of these determinations, and are outlined below.
Stable neomycin phosphotransferase encoding replicons-harboring cell lines were used, so all cell lines were maintained under G418 selection prior to the assay. Potency was determined using a cell ELISA assay with an antibody to the replicons encoded NS3/4a protease. See Caterina Trozzi et al., In Vitro Selection and Characterization of Hepatitis C Virus Serine Protease Variants Resistant to an Active-Site Peptide Inhibitor, 77(6) J. Virol. 3669 (2003). To initiate an assay, replicon cells were plated in the presence of a dilution series of test compound in the absence of G418. Typically, the assays were performed in a 96-well plate formate for manual operation, or a 384-well plate format for automated assay. Replicon cells and compound were incubated for 96 hours. At the end of the assay, cells were washed free of media and compound, and the cells were then lysed. RNA was quantified indirectly through detection of replicon-encoded NS3/4A protein levels, through an ELISA-based assay with an antibody specific for NS3/4A. IC50 determinations were calculated as a percentage of a DMSO control by fitting the data to a four-parameter fit function and the data obtained is provided in the table below.

Structure (SMILES)	IC50 [nM]
CNC(=O)c1c(-c2ccc(F)cc2)oc2cc(N(C)S(C)(=O)=O)c(-c3cc(C(=O)O)cc(-c4nc5c(F)cccc5o4)c3)cc12 [Example 650, 3-(4-fluorobenzo[d]oxazol-2-yl)-5-(2-(4-fluorophenyl)-3-(methylcarbamoyl)-6-(N-methylmethylsulfonamido)benzofuran-5-yl)benzoic acid]	55.7
CNC(=O)c1c(-c2ccc(F)cc2)oc2cc(N(C)S(C)(=O)=O)c(-c3ccc(OC)c(-c4cc5cc(F)ccc5[nH]4)c3)cc12 [Example 860]	1.9
CNC(=O)c1c(-c2ccc(F)cc2)oc2cc(N(CC(F)F)S(C)(=O)=O)c(-c3cccc(-c4nc5ncccc5o4)c3)cc12 [Example 869]	2.3
CNC(=O)c1c(-c2ccc(F)cc2)oc2cc(N(CCC3COC(C)(C)O3)S(C)(=O)=O)c(-c3ccc(OC)c(-c4nc5c(F)cccc5o4)c3)cc12 (stereo not drawn) [Example 770]	11.3
CNC(=O)c1c(-c2ccc(F)cc2)oc2cc(N(CC3CCOC(c4ccccc4)O3)S(C)(=O)=O)c(-c3ccc(OC)c(-c4nc5c(F)cccc5o4)c3)cc12 (stereo not drawn) [Example 769]	80.7
CNC(=O)c1c(-c2ccc(F)cc2)oc2cc(N(C(CF)CF)S(C)(=O)=O)c(-c3ccc(OC)c(-c4nc5c(F)cccc5o4)c3)cc12 [Example 807]	46.7
CNC(=O)c1c(-c2ccc(F)cc2)oc2cc(N(CCC3COC(C)(C)O3)S(C)(=O)=O)c(-c3ccc(OC)c(-c4nc5c(F)cc(F)cc5o4)c3)cc12 (stereo not drawn) [Example 771]	13.3
CNC(=O)c1c(-c2ccc(F)cc2)oc2cc(N(C)S(C)(=O)=O)c(-c3ccc(N4CCOC4=O)c(-c4nc5c(F)cccc5o4)c3)cc12 [Example 483]	2.48
CNC(=O)c1c(-c2ccc(F)cc2)oc2cc(N(CC(O)CC#N)S(C)(=O)=O)c(-c3ccc(OC)c(-c4nc5ccccc5o4)c3)cc12 (stereo not drawn) [Example 820]	5.06

Same assay, conditions: Hepatitis C virus, 96 h, read-out: Replicon 1b IC50 (nM), HCV genotype 1b replicon cells, 96 hours incubation, NS3/4A ELISA readout

Structure (SMILES)	IC50 [nM]
CNC(=O)c1c(-c2ccc(F)cc2)oc2cc(N(C)S(C)(=O)=O)c(-c3ccc(OC)c(-c4nc5cc(Cl)cnc5o4)c3)cc12 [Example 226]	4
CNC(=O)c1c(-c2ccc(F)cc2)oc2cc(N(C)S(C)(=O)=O)c(-c3cccc(-c4nc5cccnc5o4)c3)cc12 [Example 217]	2.1
CNC(=O)c1c(-c2ccc(F)cc2)oc2cc(N(C)S(C)(=O)=O)c(-c3cccc(-c4cc5ccccc5[nH]4)c3)cc12 [Example 366, 5-(3-(1H-indol-2-yl)phenyl)-2-(4-fluorophenyl)-N-methyl-6-(N-methylmethylsulfonamido)benzofuran-3-carboxamide]	4.2
CNC(=O)c1c(-c2ccc(F)cc2)oc2cc(N(C)S(C)(=O)=O)c(-c3cc(OC)cc(-c4nc5ccccc5o4)c3)cc12 [Example 176]	3.9
CNC(=O)c1c(-c2ccc(F)cc2)oc2cc(N(C)S(C)(=O)=O)c(-c3cccc(-c4nc5ccc(OC)nc5s4)c3)cc12 [Example 251]	4
CNC(=O)c1c(-c2ccc(F)cc2)oc2cc(N(C)S(C)(=O)=O)c(-c3cccc(-c4nc5cc(Cl)cnc5o4)c3)cc12 [Example 223]	10
CNC(=O)c1c(-c2ccc(F)cc2)oc2cc(N(C)S(C)(=O)=O)c(-c3ccc(OC)c(-c4nc5cccc(F)c5o4)c3)cc12 [Example 186]	2
CNC(=O)c1c(-c2ccc(F)cc2)oc2cc(N(CCCN(C)C)S(C)(=O)=O)c(-c3cccc(-c4nc5ncccc5o4)c3)cc12 [Compound 399]	2.8
CCCCCCN(c1cc2oc(-c3ccc(F)cc3)c(C(=O)NC)c2cc1-c1ccccc1)S(C)(=O)=O [Example 24, 2-(4-fluorophenyl)-6-[hexyl (methylsulfonyl)amino]-N-methyl-5-phenyl-1-benzofuran-3-carboxamide]	182
CONC(=O)c1c(-c2ccc(F)cc2)oc2cc(N(CCN(C)c3ccccc3)S(C)(=O)=O)c(-c3ccccc3)cc12 [Example 8, 2-(4-fluorophenyl)-N-methoxy-6-[{2-[methyl(phenyl)amino]ethyl} (methylsulfonyl)amino]-5-phenyl-1-benzofuran-3-carboxamide]	276
CNC(=O)c1c(-c2ccc(F)cc2)oc2cc(N(C)S(C)(=O)=O)c(-c3cc(-c4nc5cccnc5o4)ccc3Cl)cc12 [Example 230]	8.3
CNC(=O)c1c(-c2ccc(F)cc2)oc2cc(N(C)S(C)(=O)=O)c(-c3cccc(-c4nc5c(C)ccnc5[nH]4)c3)cc12 [Example 330]	2.7
CONC(=O)c1c(-c2ccc(F)cc2)oc2cc(N(C)S(C)(=O)=O)c(-c3ccccc3OC)cc12 [Example 91, 2-(4-fluorophenyl)-N-methoxy-5-(2-methoxyphenyl)-6-[methyl (methylsulfonyl)amino]-1-benzofuran-3-carboxamide]	342
CNC(=O)c1c(-c2ccc(F)cc2)oc2cc(N(C)S(C)(=O)=O)c(-c3ccc(Cl)c(-c4nc5c(C)ccnc5[nH]4)c3)cc12 [Example 321]	6.6
CNC(=O)c1c(-c2ccc(F)cc2)oc2cc(N(C)S(C)(=O)=O)c(-c3cccc(CN)c3)cc12 [Example 101, 5-[3-(aminomethyl)phenyl]-2-(4-fluorophenyl)-N-methyl-6-[methyl(methylsulfonyl)amino]-1-benzofuran-3-carboxamide]	505
CNC(=O)c1c(-c2ccc(F)cc2)oc2cc(N(C)S(C)(=O)=O)c(-c3cc(F)cc(-c4nc5cccc(Cl)c5o4)c3)cc12 [Example 164]	16.5
CCCCCN(c1cc2oc(-c3ccc(F)cc3)c(C(=O)NC)c2cc1-c1ccccc1)S(C)(=O)=O [Example 20, 2-(4-fluorophenyl)-N-methyl-6-[(methylsulfonyl) (pentyl)amino]-5-phenyl-1-benzofuran-3-carboxamide]	66
CNC(=O)c1c(-c2ccc(F)cc2)oc2cc(N(C)S(C)(=O)=O)c(-c3cccc(-c4nc5ccc(C#N)cc5[nH]4)c3)cc12 [Example 152, 5-[3-(6-cyano-1H-benzimidazol-2-yl)phenyl]-2-(4-fluorophenyl)-N-methyl-6-[methyl (methylsulfonyl)amino]-1-benzofuran-3-carboxamide]	4
CNC(=O)c1c(-c2ccc(F)cc2)oc2cc(N(C)S(C)(=O)=O)c(-c3ccc(OC)c(-c4nc5cc(Cl)ccc5o4)c3)cc12 [Example 187]	2.6
CNC(=O)c1c(-c2ccc(F)cc2)oc2cc(N(CC3CCCCC3)S(C)(=O)=O)c(-c3ccccc3)cc12 [Example 13, 6-[(cyclohexylmethyl)(methylsulfonyl)amino]-2-(4-fluorophenyl)-N-methyl-5-phenyl-1-benzofuran-3-carboxamide]	84
CNC(=O)c1c(-c2ccc(F)cc2)oc2cc(N(C)S(C)(=O)=O)c(-c3ccc(OC)c(-c4nc5c(F)cc(F)cc5o4)c3)cc12 [Example 408]	3.8
CNC(=O)c1c(-c2ccc(F)cc2)oc2cc(N(C)S(C)(=O)=O)c(-c3ccccc3C)cc12 [Example 80, 2-(4-fluorophenyl)-N-methyl-6-[methyl (methylsulfonyl)amino]-5-(2-methylphenyl)-1-benzofuran-3-carboxamide]	241
CNC(=O)c1c(-c2ccc(F)cc2)oc2cc(N(C)S(C)(=O)=O)c(-c3ccc(F)c(-c4nc5ccc(OC)nc5[nH]4)c3)cc12 [Example 309]	3.7
CCc1ccc(-c2cc3c(C(=O)NC)c(-c4ccc(F)cc4)oc3cc2N(C)S(C)(=O)=O)cc1 [Example 110, 5-(4-ethylphenyl)-2-(4-fluorophenyl)-N-methyl-6-[methyl(methylsulfonyl)amino]-1-benzofuran-3-carboxamide]	90
CNC(=O)c1c(-c2ccc(F)cc2)oc2cc(N(C)S(C)(=O)=O)c(-c3cccc(-c4nc5ccc(NC(=O)[C@@H]6CCCN6C(=O)OC(C)(C)C)cc5o4)c3)cc12 [Example 285]	10.2
CNC(=O)c1c(-c2ccc(F)cc2)oc2cc(N(C)S(C)(=O)=O)c(-c3cccc(-c4nc5cc(F)ccc5o4)c3)cc12 [Example 158]	4.8
CNC(=O)c1c(-c2ccc(F)cc2)oc2cc(N(C)S(C)(=O)=O)c(-c3cccc(-c4nc5c(C)ccnc5[nH]4)c3O)cc12 [Example 318]	18.7
